# From patent US8592458B2 (priority 2005, dated 2013)
# Counter-ions that a name gives are not always drawn. Like-named read-outs stand apart in the source and are kept apart here.
# Experiments:
# [1] = target: α7 nAChR (Rattus norvegicus, UniProt Q05941); format: binding; conditions: for RELATIVE A7/A4B2 SELECTIVITY / Ki: rat brain membranes; for RELATIVE A7/A4B2 SELECTIVITY: Ki alpha4beta2 / Ki alpha7, divided by the alpha7 selectivity of DMXBA (1.95), DMXBA set to 1.00; for Ki α4β2/α7 Ratio: alpha7 selectivity, not normalized with respect to DMXBA selectivity; for Ki: [125I]alpha-bungarotoxin, n = 2
# α7 nAChR, sequence (Q05941 23-502): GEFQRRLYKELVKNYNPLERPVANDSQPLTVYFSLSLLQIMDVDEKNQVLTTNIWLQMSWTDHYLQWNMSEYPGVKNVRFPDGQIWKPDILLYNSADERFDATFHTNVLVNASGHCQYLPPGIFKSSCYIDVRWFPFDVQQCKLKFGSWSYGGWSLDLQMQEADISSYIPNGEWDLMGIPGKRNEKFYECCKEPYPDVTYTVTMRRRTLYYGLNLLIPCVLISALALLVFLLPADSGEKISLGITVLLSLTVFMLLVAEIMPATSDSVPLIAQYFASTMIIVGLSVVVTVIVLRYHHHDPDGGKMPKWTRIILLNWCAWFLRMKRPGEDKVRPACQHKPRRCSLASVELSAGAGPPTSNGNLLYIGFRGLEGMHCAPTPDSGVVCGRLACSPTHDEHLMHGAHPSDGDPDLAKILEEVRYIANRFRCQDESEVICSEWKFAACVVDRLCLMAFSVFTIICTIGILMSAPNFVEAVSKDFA
# [2] = target: α4β2 nAChR (Rattus norvegicus, UniProt P09483+P12390); test: Radioligand binding, displacement of [3H]cytisine from rat brain membranes; conditions: n = 2
# α4β2 nAChR, sequence (P09483 31-630): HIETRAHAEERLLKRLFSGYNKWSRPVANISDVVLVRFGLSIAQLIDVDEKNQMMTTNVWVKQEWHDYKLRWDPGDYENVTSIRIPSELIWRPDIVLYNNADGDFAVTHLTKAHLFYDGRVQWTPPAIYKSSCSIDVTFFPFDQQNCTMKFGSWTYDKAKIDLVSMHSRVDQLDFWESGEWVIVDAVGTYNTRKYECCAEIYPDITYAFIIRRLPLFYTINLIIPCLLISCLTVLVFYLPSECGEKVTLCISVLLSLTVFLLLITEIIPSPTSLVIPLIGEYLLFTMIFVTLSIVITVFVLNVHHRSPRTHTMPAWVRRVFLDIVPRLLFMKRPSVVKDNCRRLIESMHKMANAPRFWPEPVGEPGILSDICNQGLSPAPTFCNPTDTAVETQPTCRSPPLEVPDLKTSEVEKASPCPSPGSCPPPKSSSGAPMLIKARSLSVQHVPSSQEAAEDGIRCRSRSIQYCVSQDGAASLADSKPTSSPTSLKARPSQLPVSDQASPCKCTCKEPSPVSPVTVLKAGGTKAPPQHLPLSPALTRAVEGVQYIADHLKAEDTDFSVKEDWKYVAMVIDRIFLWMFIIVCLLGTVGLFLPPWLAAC
# α4β2 nAChR, sequence (P12390 25-500): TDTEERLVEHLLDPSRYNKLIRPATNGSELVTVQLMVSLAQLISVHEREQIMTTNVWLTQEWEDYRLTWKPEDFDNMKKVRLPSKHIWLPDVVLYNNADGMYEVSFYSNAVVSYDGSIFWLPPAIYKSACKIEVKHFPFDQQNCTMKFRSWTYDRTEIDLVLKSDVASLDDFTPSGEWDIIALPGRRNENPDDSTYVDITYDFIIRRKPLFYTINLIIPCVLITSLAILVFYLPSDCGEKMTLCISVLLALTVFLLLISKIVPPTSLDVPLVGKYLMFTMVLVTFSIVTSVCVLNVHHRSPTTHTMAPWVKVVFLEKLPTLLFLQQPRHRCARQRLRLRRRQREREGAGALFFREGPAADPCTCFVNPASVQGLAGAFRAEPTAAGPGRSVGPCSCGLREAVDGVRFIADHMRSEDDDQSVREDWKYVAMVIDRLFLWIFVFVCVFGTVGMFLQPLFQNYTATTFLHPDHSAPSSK
# Procedure: Assays were performed using the experimental compound to compete for its nAChR binding site with a radioligand that specifically labels either the α4β2 or the α7 nAChR in homogenized Sprague-Dawley rat brain membrane. These assays were used to determine the IC50 of the experimental compounds, which is then used to determine the KI with the Cheng-Prusoff equation.
# The 3-arylidene-anabaseine compound was suspended in 50 mM Tris binding saline, with 2 mg/ml BSA, if it was a salt, or in methanol if it was a free base, and dilutions were made in 2 mg/ml BSA Tris binding saline. The final solutions were incubated at 37° C. for approximately 2.5 hours. Once the reaction was assumed to be at equilibrium, it was stopped by harvesting the tissue onto GF/C filters, which were soaked for 45 minutes in a 0.5% polyethylenamine solution to reduce non-specific binding of the radioligand to the filter, using a Brandel tissue harvester. The filters were then placed in gamma tubes and counted on a Beckman counter for 5 minutes per sample. The counts per minute were then assessed, the results were entered, and the IC50s and KIs were determined using the software program Graphpad Prism®. The [^3H]cytisine experiments were performed in a similar manner. First the addition of all of the components: 1 nM [^3H]cytisine, 3-benzylidene-3-arylidene-anabaseine compound (5 nM-50 μM), 0.2 mg rat brain homogenate, and 2 mg/ml BSA Tris solution at a pH of 7.4 to bring the final volume up to 0.5 ml in each tube.
# To assess non-specific binding, 1 mM nicotine was added in place of the 3-arylidene-anabaseine. To assess total binding, only the radioligand, tissue, and BSA Tris solution were added. The incubation time and the temperature were altered in this protocol to produce the greatest difference between total and non-specific binding and to maximize the affinity of the radioligand for the receptor, respectively. The incubation time for [^3H]cytisine was 4 hours at 4° C. […] The counts per minute were entered into GraphPad Prism® where the IC50s and the KIs were assessed.
# Rat brain membrane was obtained frozen from Pel-Freez Biologicals (Rogers, Ariz.). The protein concentration of the rat brain homogenate was assessed using the bicinchoninic acid (BCA) protein assay kit from Pierce (Rockford, Ill.).
# Displacement of ^125I-labelled alpha-bungarotoxin (BTX) measured binding to alpha7 receptors; displacement of [^3H]-labelled cytisine measured binding to alpha4beta2 receptors. […] Nonspecific binding of each radioligand was measured in the presence of 1.0 mM nicotine. […] Bound [3H] […] was measured in a liquid scintillation counter, whereas [125]BTX was measured with use of a Biogamma counter (both from Beckman Coulter).
# [3] = Spectrophotometric pKa determination of the imine nitrogen; format: physicochemical; conditions: for % ionized: percent ionization at pH 7.4
# Procedure: Thirteen different pH values in the titration region were evaluated (pH: 4, 5, 6, 7, 7.2, 7.5, 7.8, 8, 8.2, 8.5, 8.8, 9, 10). A specific concentration of 3-benzylidene-3-arylidene-anabaseine compound, 1.3×10^−3 M, was added to the potassium phosphate buffers at varied pH values. Each tube was then vortexed and immediately read in a Beckman spectrophotometer. The same glass cuvette was used with every sample. The glass cuvette was thoroughly rinsed with distilled deionized water between different pH samples. The wavelength scan was set to a range of 250-600 nm. The pH with the highest change in absorbance was determined. The wavelength at the highest change in absorbance and the absorbance values for all of the different pH samples at this wavelength were entered into the Enzfitter software (Elsevier-Biosoft, Cambridge, UK) in order to estimate each pKa value.
# [4] = Octanol/water partition coefficient by RP-HPLC; format: physicochemical; conditions: 1-octanol/sodium phosphate buffer; 1-octanol / 10 mM sodium phosphate buffer pH 7.4 with 150 mM NaCl, corrected for ionization
# Procedure: P is the ratio of the concentration of an un-ionized form of a compound in octanol relative to the unionized concentration of the compound in an aqueous phase containing 150 mM NaCl (to approximate physiological conditions), after the two phases have equilibrated. Log P values were determined for each test compound by RP-HPLC analysis. Approximately 1 mg of each compound was weighed out and placed in equal volumes, 3 ml 10 mM sodium phosphate buffer, pH 7.4, which contained 150 mM NaCl, and 1-octanol. Previously, equal volumes of the sodium phosphate buffer and 1-octanol were added to a separatory funnel and allowed to equilibrate overnight. The equilibrated sodium phosphate buffer was checked prior to its addition to the compound for a pH of 7.4. Once these phases were added to the weighed compound, the solutions were allowed to equilibrate overnight on a gentle shaker at room temperature. The samples were centrifuged at […] for 5 minutes and octanol phase carefully removed with a Pasteur pipette. The pH of the water phase was remeasured in order to calculate the corrected Log P value.
# Since large concentrations of octanol cannot be directly injected into the HPLC without affecting the elution of the compound being measured, the compound was extracted from the separated octanol phase with an acidic 150 mM NaCl solution adjusted to a pH of approximately 2.6 (with 100 mM glacial acetic acid). The acidic saline solution was allowed to gently mix with the octanol phase for 20 minutes on a shaker at room temperature. The samples containing the octanol and acidic saline phases were then centrifuged at 1,000×g for 5 minutes and the upper octanol phase was carefully removed with a Pasteur pipette. This back extraction step was repeated at least two and sometimes three times. All three or four back extracted solutions for a particular compound were then combined. Both the original aqueous and the back extracted octanol phases were then diluted with 50 mM ammonium acetate buffer, pH 4.5. The diluted samples were then transferred by pipette to autosampler tubes and subsequently […] of each diluted sample was injected into the HPLC. The area under the curve (AUC) of an absorbance peak was determined for samples from both (octanol and aqueous) of the original phases. Taking into account the dilutions of each sample phase during its preparation for HPLC determination, Log P (taking into consideration the percent ionization at pH 7.4) was then calculated.
# [5] = imine nitrogen, room temperature, 50 mM potassium phosphate buffer, 150 mM NaCl
compound,measurement,setting,value
4′-Methyl-DMXBA,RELATIVE A7/A4B2 SELECTIVITY,[1],14.8
COc1ccc2cc(/C=C3\CCCN=C3c3cccnc3)ccc2c1 (as salt: hydrochloride) [3-[(6-Methoxy-naphth-2-yl)-methylene]-anabaseine dihydrochloride],melting point,,223 to 226 °C
"CC1CCN=C(c2cccnc2)C1 (racemic) [(S,R)-4-Methyl-Anabaseine, 4-Methyl-anabaseine]",RELATIVE A7/A4B2 SELECTIVITY,[1],0.69
"COc1ccc(C=C2C(c3cccnc3)=NCCC2C)c(OC)c1 (racemic) [(S,R)-4-Methyl-DMXBA, 3-(2,4-dimethoxybenzylidene)-(4-methyl)-3,4,5,6-tetrahydro-2,3′-bipyridine]",RELATIVE A7/A4B2 SELECTIVITY,[1],4.10
"CC1CCC(c2cccnc2)=NC1 (racemic) [(S,R)-5-Methyl-Anabaseine, 5-Methyl-Anabaseine]",RELATIVE A7/A4B2 SELECTIVITY,[1],0.38
"COc1ccc(C=C2CC(C)CN=C2c2cccnc2)c(OC)c1 (racemic) [(S,R)-5-Methyl-DMXBA, 3-(2,4-dimethoxybenzylidene)-(5-methyl)-3,4,5,6-tetrahydro-2,3′-bipyridine]",RELATIVE A7/A4B2 SELECTIVITY,[1],1.31
"CC1CCCC(c2cccnc2)=N1 (racemic) [(S,R)-6-Methyl-Anabaseine, 6-methyl-anabaseine]",RELATIVE A7/A4B2 SELECTIVITY,[1],1.19
"COc1ccc(C=C2CCC(C)N=C2c2cccnc2)c(OC)c1 (racemic) [(S,R)-6-Methyl-DMXBA, 3-(2,4-dimethoxybenzylidene)-(6-methyl)-3,4,5,6-tetrahydro-2,3′-bipyridine]",RELATIVE A7/A4B2 SELECTIVITY,[1],3.67
"COc1cc(O[C@@H]2O[C@H](C(=O)O)[C@@H](O)[C@H](O)[C@H]2O)ccc1C=C1CCCN=C1c1cccnc1 [3-(4-Beta-Glucuronidyl-2-methoxyB)A, 3-(4-Glucuronido-2-methoxybenzylidene)-anabaseine]",RELATIVE A7/A4B2 SELECTIVITY,[1],9.40
"C(=C1/CCCN=C1c1cccnc1)/c1ccc2c(c1)OCCO2 [3-[3,4-(Ethylenedioxy)benzylidene]-anabaseine]",Ki α4β2/α7 Ratio,[1],2.60
same,Ki,[1],0.2 ± 0.01 µM
same,Ki,[2],0.52 ± 0.01 µM
same,pKa,[3]; [5],7.56 ± 0.03
same,% ionized,[3],59.11%
same,logP,[4],3.1
"C(=C1/CCCN=C1c1cccnc1)/c1ccc2c(c1)OCO2 [3-[3,4-(Methylenedioxy)benzylidene]-anabaseine]",Ki α4β2/α7 Ratio,[1],3.04
same,Ki,[1],0.23 ± 0.002 µM
same,Ki,[2],0.7 ± 0.07 µM
same,pKa,[3]; [5],7.64 ± 0.04
same,% ionized,[3],63.48%
same,logP,[4],2.43
COc1ccc2cc(/C=C3\CCCN=C3c3cccnc3)ccc2c1 [3-[(6-Methoxy-naphth-2-yl)-methylene]-anabaseine dihydrochloride],Ki α4β2/α7 Ratio,[1],1.62
same,Ki,[1],0.37 ± 0.03 µM
same,Ki,[2],0.6 ± 0.1 µM
same,pKa,[3]; [5],7.29 ± 0.12
same,% ionized,[3],43.67%
same,logP,[4],2.65
C(=C1/CCCN=C1c1cccnc1)/c1cc2ccccc2o1 [3-[(Benzofuran-2-yl)methylene]-anabaseine],Ki α4β2/α7 Ratio,[1],39.5
same,Ki,[1],0.15 ± 0.003 µM
same,Ki,[2],5.92 ± 1.06 µM
same,PKa,[3]; [5],9/2/04
same,% ionized,[3],33.90%
same,logP,[4],3.86 ± 0.4
"c1cncc(C2=NCCCC2)c1 [Anabaseine, reference compound]",RELATIVE A7/A4B2 SELECTIVITY,[1],0.69
"COc1ccc(/C=C2\CCCN=C2c2cccnc2)c(OC)c1 [DMXBA (GTS-21), (E)-3-(2,4-dimethoxybenzylidene)-3,4,5,6-tetrahydro-2,3′-bipyridine, reference compound]",RELATIVE A7/A4B2 SELECTIVITY,[1],1.00
"COc1ccc(C=C2C(c3cccnc3)=NCCC2C)c(OC)c1 (stereo not drawn) [Least selective enantiomer of 4-Methyl-DMXBA, 3-(2,4-dimethoxybenzylidene)-(4-methyl)-3,4,5,6-tetrahydro-2,3′-bipyridine]",RELATIVE A7/A4B2 SELECTIVITY,[1]; listed as 4-methyl-DMXBA enantiomer which had a longer retention time,1.28
"COc1ccc(C=C2CC(C)CN=C2c2cccnc2)c(OC)c1 (stereo not drawn) [Least selective enantiomer of 5-Methyl-DMXBA, 3-(2,4-dimethoxybenzylidene)-(5-methyl)-3,4,5,6-tetrahydro-2,3′-bipyridine]",RELATIVE A7/A4B2 SELECTIVITY,[1],1.03
"COc1ccc(C=C2CCC(C)N=C2c2cccnc2)c(OC)c1 (stereo not drawn) [Least selective enantiomer of 6-Methyl-DMXBA, 3-(2,4-dimethoxybenzylidene)-(6-methyl)-3,4,5,6-tetrahydro-2,3′-bipyridine]",RELATIVE A7/A4B2 SELECTIVITY,[1],2.93
"COc1ccc(C=C2C(c3cccnc3)=NCCC2C)c(OC)c1 (stereo not drawn) [Most selective enantiomer of 4-Methyl-DMXBA, 3-(2,4-dimethoxybenzylidene)-(4-methyl)-3,4,5,6-tetrahydro-2,3′-bipyridine]",RELATIVE A7/A4B2 SELECTIVITY,[1],8.34
same,"relative alpha7 nAChR (versus alpha4beta2) receptor binding selectivity, higher than that of the other enantiomer","[1]; rat brain nAChR, compared with the other enantiomer",6.5 fold
"COc1ccc(C=C2CC(C)CN=C2c2cccnc2)c(OC)c1 (stereo not drawn) [Most selective enantiomer of 5-Methyl-DMXBA, 3-(2,4-dimethoxybenzylidene)-(5-methyl)-3,4,5,6-tetrahydro-2,3′-bipyridine]",RELATIVE A7/A4B2 SELECTIVITY,[1],2.34
"COc1ccc(C=C2CCC(C)N=C2c2cccnc2)c(OC)c1 (stereo not drawn) [Most selective enantiomer of 6-Methyl-DMXBA, 3-(2,4-dimethoxybenzylidene)-(6-methyl)-3,4,5,6-tetrahydro-2,3′-bipyridine]",RELATIVE A7/A4B2 SELECTIVITY,[1],5.34
